Data taken from patent US20220088002A1, “METHOD AGAINST CORONAVIRUS INFECTION WITH QUINOLINE COMPOUND” (CHANG GUNG UNIVERSITY, priority 2020, published 2022).

How the values were obtained:
HcoV-229E = test: Effect against HCoV-229E in Vero E6 cells (MTT cell viability); format: cell-based, human coronavirus 229E
Method: Vero E6 cells were divided into 6 groups, including one normal control group, one pathological control group, and four experimental groups (i.e., experimental groups 1 to 4). Each group of the Vero E6 cells was incubated in a respective well of a 96-well culture plate containing 100 μL of E2 medium at 2×10^4 cells/well, followed by cultivation in an incubator (37° C., 5% CO2) for 24 hours. Afterwards, the culture medium in each well was removed, and the cells of the experimental groups 1 to 4 were pretreated with 6-bromo-2-[1-(2,5-dimethylphenyl)-5-methyl-1H-pyrazol-4-yl]-quinoline-4-carboxylic acid (i.e., HP520-3) (Cat. No. Molport-020-176-277, Molport Inc.) respectively at concentrations of 39 nM, 78 nM, 156 nM, and 312 nM, followed by adding 150 μL of the HcoV-229E solution prepared in section 2 of General Experimental Materials. […]
Each group was cultivated in an incubator (37° C., 5% CO2) for 96 hours. […] After cultivation in an incubator (37° C., 5% CO2) for 2 hours, the respective resultant cell culture was added with 150 μL of dimethyl sulfoxide (DMSO), followed by subjecting the mixture thus obtained to determination of absorbance at a wavelength of 590 nm (OD590) by an ELISA reader.
The cell viability rate (%) was calculated using the following Equation (I): […]

SARS-CoV-2 [1] = test: Viral plaque reduction assay; format: cell-based; settings: SARS-CoV-2-infected Vero E6 cells (m.o.i. 0.01), 1 μM and 10 μM, 72 hours; versus pathological control group
SARS-CoV-2 [2] = format: cell-based; settings: Vero E6 cells pretreated at 0.3125 μM, 1.25 μM, and 5 μM, m.o.i. 0.01; normalized against GAPDH; versus pathological control group

Cc1ccc(C)c(-n2ncc(-c3cc(C(=O)O)c4cc(Br)ccc4n3)c2C)c1 [HP520-3, 6-bromo-2-[1-(2,5-dimethylphenyl)-5-methyl-1H-pyrazol-4-yl]-quinoline-4-carboxylic acid]
cell viability rate (HcoV-229E; HcoV-229E-infected Vero E6 cells pretreated at 39 nM, 78 nM, 156 nM, and 312 nM, versus pathological control group): significantly higher than that determined in the pathological control group | EC50 (HcoV-229E; Human coronavirus 229E, Vero C1008, HcoV-229E-infected Vero E6 cells, 96 hours, MTT, n=3, mean±SD): 141 ± 15.4 nM | number of viral plaques (SARS-CoV-2 [1]): lower than that determined in the pathological control group | relative RNA expression level of E gene of SARS-CoV-2 (SARS-CoV-2 [2]): significantly lower than that of the pathological control group
